Measured values from patent US20220031684A1, “PROPHYLACTIC EFFICACY OF SEROTONIN 4 RECEPTOR AGONISTS AGAINST STRESS” (THE TRUSTEES OF COLUMBIA UNIVERSITY IN THE CITY OF NEW YORK, priority 2019, published 2022).

Test system: 129S6/SvEv mice
Test: 3-shock contextual fear conditioning (CFC)
Format: in vivo
Description: This chronic CORT elevation dysregulates the hypothalamic-pituitary-adrenal axis (HPA) in a manner similar to that observed in clinical depression. The dose and duration of CORT treatment was selected based on previous studies. CORT (35 μg/ml, equivalent to about 5 mg/kg/day) dissolved in 0.45% hydroxypropyl-o-cyclodextrin (0-CD) or vehicle (VEH) (0.45% j-CD) was available ad libitum in the drinking water in opaque bottles to protect it from light. VEH- and CORT-treated water was changed every 3 days to prevent possible degradation. Contextual Fear Conditioning (CFC): A 3-shock CFC procedure was administered as previously published. Briefly, mice were placed into context A and administered 3 2-s shocks (0.75 mA) at 180 s, 240 s or 300 s following placement into context A. Mice were removed from the context 15 s following the termination of shock (at 317 s). For context retrieval, mice were placed back into context A for 300 s. Electrophysiology: Electrophysiology was conducted as previously described. Statistical Analysis: Results from data analyses are expressed as means±SEM. Alpha was set to 0.05 for all analyses. Data were analyzed using GraphPad Prism v7.0 or v8.0. For all experiments, unless otherwise noted, one- or two-way ANOVAs with repeated-measures were applied to the data as appropriate. Significant main effects and/or interactions were followed by Fisher's PLSD post hoc analysis or unpaired t-tests. Drugs: All drugs were prepared in physiological saline and all injections were administered intraperitoneally (i.p.) in volumes of 0.1 cc per […] body weight unless otherwise noted. Fluoxetine hydrochloride (Flx): Flx (BioTrend Chemicals AG, BG197, Zurich, Germany) was administered in the drinking water (18 mg/kg/day) for 3 weeks before the start of CORT. […] (R,S)-ketamine (K): (R,S)-ketamine (Ketaset III, Ketamine HCl injection, Fort Dodge Animal Health, Fort Dodge, Iowa) was administered in a single dose at 30 mg/kg of body weight 1 week before the start of CFC. […] PF-04995274: PF-04995274 (Sigma, Catalog No. 1331782-27-4, St. Louis, Mo.) was administered a single dose at 3 or 10 mg/kg of body weight 1 week before the start of CFC. PF-04995274 was dissolved in saline using an ultrasonic homogenizer (BioLogics, Model 3000, Manassas, Va.). Osmotic minipump implantation: ALZET osmotic minipumps (Model 2004, […], 28 days) were implanted subcutaneously under isoflurane anesthesia as previously described [S2]. Osmotic minipumps were rotated under the skin two to three times per week. Behavioral Assays: All experiments were approved by the Institutional Animal Care and Use Committee (IACUC) at the New York Psychiatric Institute (NYSPI). Elevated Plus Maze (EPM): Testing was performed as previously described [S3]. Briefly, the maze is a plus-cross-shaped apparatus consisting of four arms, two open and two enclosed by walls, linked by a central platform at a height of 50 cm from the floor. Mice were individually placed in the center of the maze facing an open arm and were allowed to explore the maze for 5 min. The time spent in and the number of entries into the open arms was used as an anxiety index. Videos were scored using ANY-maze behavior tracking software (Stoelting, Wood Dale, Ill.). Novelty-Suppressed Feeding: The NSF is a conflict test that elicits competing motivations: the drive to eat and the fear of venturing into the center of a brightly lit arena. The latency to feed is used as an index of anxiety-like behavior, because classical anxiolytic drugs decrease this measure. The NSF test was carried out during an 8 min period as previously described [S3]. Briefly, the testing apparatus consisted of a plastic box (50×50×20 cm), the floor of which was covered with approximately 2 cm of bedding. For 129S6/SvEv experiments, mice were food restricted for 12 h. For the C57BL/6N experiments, mice were food restricted for 24 h. […]

[1] = FIG. 3 Acute RS67333 cohort, FIG. 3B, Fisher's PLSD

CCCCN1CCC(CCC(=O)c2cc(Cl)c(N)cc2OC)CC1.Cl [RS-67,333, 1-(4-amino-5-chloro-2-methoxyphenyl)-3-[1(n-butyl)-4-piperidinyl]-1-propanone HCl]
p, RS67333 (10 mg/kg) vs. RS67333 (30 mg/kg) (FIG. 2 cohort, post-hoc comparison, measurement head lies above the shown rows (block before FST)): 0.3050 | p, CFC Trainging Freezing (%), RS67333 (1.5 mg/kg) vs. RS67333 (10 mg/kg) [1]: 0.3858 | p, CFC Trainging Freezing (%), Saline vs. RS67333 (1.5 mg/kg) [1]: 0.0941 | p, CFC Trainging Freezing (%), Saline vs. RS67333 (10 mg/kg) [1]: 0.0076 | p, CFC Training Freezing (min 1), RS67333 (1.5 mg/kg) vs. RS67333 (10 mg/kg) (FIG. 3 cohort, Fisher's PLSD): 0.9715 | p, CFC Training Freezing (min 1), Saline vs. RS67333 (1.5 mg/kg) (FIG. 3 cohort, Fisher's PLSD): 0.8847 | p, CFC Training Freezing (min 1), Saline vs. RS67333 (10 mg/kg) (FIG. 3 cohort, Fisher's PLSD): 0.9054 | p, CFC Training Freezing (min 3), RS67333 (1.5 mg/kg) vs. RS67333 (10 mg/kg) (FIG. 3 cohort, Fisher's PLSD): 0.8746 | p, CFC Training Freezing (min 3), Saline vs. RS67333 (1.5 mg/kg) (FIG. 3 cohort, Fisher's PLSD): 0.8999 | p, CFC Training Freezing (min 3), Saline vs. RS67333 (10 mg/kg) (FIG. 3 cohort, Fisher's PLSD): 0.9721 | p, CFC Training Freezing (min 4), RS67333 (1.5 mg/kg) vs. RS67333 (10 mg/kg) (FIG. 3 cohort, Fisher's PLSD): 0.7882 | p, CFC Training Freezing (min 4), Saline vs. RS67333 (1.5 mg/kg) (FIG. 3 cohort, Fisher's PLSD): 0.0168 | p, CFC Training Freezing (min 4), Saline vs. RS67333 (10 mg/kg) (FIG. 3 cohort, Fisher's PLSD): 0.0040 | p, CFC Training Freezing (min 5), RS67333 (1.5 mg/kg) vs. RS67333 (10 mg/kg) (FIG. 3 cohort, Fisher's PLSD): 0.0492
